Measurements taken from US20250082633A1, “COMPOUNDS AND METHODS FOR MODULATING SPLICING” (REMIX THERAPEUTICS INC., priority 2021, published 2025).
Structures can show the parent of a compound that is named as a salt.

Legend:
[1] = tested on: HiBiT-tagged HTT protein in K562 cells; assay: HiBit protein abundance assay, HTT; format: cell-based, human; settings: K562 HiBiT-modified cells, 24 hours, luminescence
Procedure: (§1) Compounds described herein were used to screen for effects on quantitative protein abundance using a HiBit assay system (Promega). Quantitative protein abundance was determined by measuring the protein levels of HiBit-tagged protein targets expressed in cell culture via luminescence using the Nano-Glo HiBiT Lytic Detection System, which uses a split complementation assay format to reconstitute NanoBiT enzyme to generate a luminescent signal. A protein abundance assay was developed such that endogenous protein targets could be modified with the HiBiT peptide tag and their abundance could be assessed after compound treatment. Briefly, K562 cell lines containing a HiBiT-modification were treated with various compounds described herein (e.g., compounds of Formulas (I), (II), or (III)). After treatment for 24 hours, the protein abundance of a specific target was determined by measuring luminescence. • Promega Nano-Glo HiBiT Lytic Detection System (cat #N3030) • Corning 384-well TC-treated microplates (cat #3570) • Synthego Engineered Cells Knock-In Clones [table] Cells were maintained in IMDM with 10% FBS. Before the assay, cells were diluted with phenolphthalein-free growth media (IMDM+1% FBS media) and were seeded in a 384-well plate at a density of 10000 cells/well (for each cell line listed in Table 6). Each compound was prepared as a 10-point 3-fold serial dilution in DMSO with the top dose at a final concentration of 10 μM in the well. Unmodified K562 cells were added at the previously specified density with DMSO to serve as an assay baseline and positive control (PC) and DMSO only with the respective modified cell lines was added to the negative control (NC) columns. Final DMSO concentration was kept at or below 0.25%. Treated cell plates were placed in an incubator at 37° C. with 5% CO2 for 24 hours. After 24 hours, 25 μL of Complete HiBit Lytic reagent was added to each well at room temperature (e.g. one plate requiring 10 mL Lytic Buffer, 100 μL LgBiT Protein, 200 μL Lytic Substrate), shaken for 5 minutes at 600 RPM, then left to sit for 10 minutes for signal to stabilize before reading on a Spark Cyto plate reader (Tecan) with a 500 ms measurement time. To determine compound effects on protein abundance of each target in Table 6, the percent response for each respective cell line was calculated at each compound concentration as follows: For the normalized response at each concentration, a four-parameter logistical regression was fit to the data and the response was interpolated at the 50% value to determine a concentration for protein abundance at 50% (IC50) the untreated control.

[2] = tested on: Target C; assay: HiBit protein abundance assay, Target C; format: cell-based; settings: Homo sapiens; K562 HiBiT-modified cells, 24 hours, luminescence
Procedure: as §1, with “Clones” for “Clones [table]”

Structure (SMILES)	IC50 [1]	IC50 [2]
Cn1cc2cc(-c3ccc4nn(C5CCNCC5)cc4n3)c(O)c(F)c2n1 [Compound 107, 7-fluoro-2-methyl-5-[2-(4-piperidyl)pyrazolo [4,3-b]pyridin-5-yl]indazol-6-ol]	0.1 to 1 µM	0.1 to 1 µM
Cn1cc2cc(-c3cc(F)c4nn(C5CCNC6(CC6)C5)cc4c3)cc(F)c2n1 (centres unmarked) [Compound 108, 2-(4-azaspiro[2.5]octan-7-yl)-7-fluoro-5-(7-fluoro-2-methyl-indazol-5-yl)indazole]	0.1 to 1 µM	0.1 to 1 µM
Cn1cc2cc(-c3ccc4nn(C5CCNCC5)cc4n3)c(O)cc2n1 [Compound 110, 2-methyl-5-[2-(4-piperidyl)pyrazolo[4,3-b]pyridin-5-yl]indazol-6-ol]	0.1 to 1 µM	0.1 to 1 µM
Cc1c(O)c(-c2ccc3nn(C4CCNCC4)nc3n2)cc2cn(C)nc12 [Compound 113, 2,7-dimethyl-5-[2-(4-piperidyl)triazolo[4,5-b]pyridin-5-yl]indazol-6-ol]	1 to 10 µM	1 to 10 µM
Cc1cc(-n2cc3cc(C4CCNCC4)cc(F)c3n2)cc2cn(C)nc12 [Compound 115, 2-(2,7-dimethylindazol-5-yl)-7-fluoro-5-(4-piperidyl)indazole]	1 to 10 µM	1 to 10 µM
Cc1cc(-n2cc3cc(N4CCNCC4)cc(F)c3n2)cc2cn(C)nc12 [Compound 117, 2-(2,7-dimethylindazol-5-yl)-7-fluoro-5-piperazin-1-yl-indazole]	1 to 10 µM	> 10 µM
Cc1nc2c(C)cc(-n3cc4cc(N5CCNCC5)cc(F)c4n3)cc2o1 [Compound 119, 6-(7-fluoro-5-piperazin-1-yl-indazol-2-yl)-2,4-dimethyl-1,3-benzoxazole]	> 10 µM	> 10 µM
Cc1cn2nc(-n3cc4cc(C5CCNCC5)cc(F)c4n3)cc(C)c2n1 [Compound 120, 6-[7-fluoro-5-(4-piperidyl)indazol-2-yl]-2,8-dimethyl-imidazo[1,2-b]pyridazine]	1 to 10 µM	> 10 µM
Cc1cc(-n2cc3cc(N4CCNCC4)ccc3n2)cc2cn(C)nc12 [Compound 121, 2,7-dimethyl-5-(5-piperazin-1-ylindazol-2-yl)indazole]	> 10 µM	> 10 µM
Cc1cn2nc(-c3cc(F)c4nn(C5CCNCC5)cc4c3)cc(C)c2n1 [Compound 122, 6-(7-fluoro-2-(piperidin-4-yl)-2H-indazol-5-yl)-2,8-dimethylimidazo [1,2-b]pyridazine hydrochloride salt]	< 0.1 µM	< 0.1 µM
Cc1nc2c(C)c(O)c(-c3cc(F)c4nn(C5CCNCC5)cc4c3)cc2o1 [Compound 123, 6-[7-fluoro-2-(4-piperidyl)indazol-5-yl]-2,4-dimethyl-1,3-benzoxazol-5-ol]	0.1 to 1 µM	0.1 to 1 µM
Cc1c(O)c(-c2cc(F)c3nn(C4CCNCC4)cc3c2)cc2cn(C)nc12 [Compound 126, 5-[7-fluoro-2-(4-piperidyl)indazol-5-yl]-2,7-dimethyl-indazol-6-ol]	1 to 10 µM	1 to 10 µM
Cc1cn2cc(-c3cc(F)c4nn(C5CCNCC5)cc4c3)nc(C)c2n1 [Compound 132, 6-[7-fluoro-2-(4-piperidyl)indazol-5-yl]-2,8-dimethyl-imidazo[1,2-a]pyrazine]	0.1 to 1 µM	0.1 to 1 µM
Cc1nc2ccc(-c3cc(F)c4nn(C5CCNCC5)cc4c3)cc2s1 [Compound 134, 6-(7-fluoro-2-(piperidin-4-yl)-2H-indazol-5-yl)-2-methylbenzo[d]thiazole]	1 to 10 µM	1 to 10 µM
Cc1nc2ccc(-c3cc(F)c4nn(C5CCNCC5)cc4c3)cc2o1 [Compound 135, 6-[7-fluoro-2-(4-piperidyl)indazol-5-yl]-2-methyl-1,3-benzoxazole]	< 0.1 µM	0.1 to 1 µM

Second part, the molecule after the results:

IC50 [1]	IC50 [2]	Structure (SMILES)
0.1 to 1 µM	0.1 to 1 µM	Cn1cc2cc(-c3cc(F)c4nn(C5CCNCC5)nc4c3)cc(F)c2n1 [Compound 103, 4-fluoro-6-(7-fluoro-2-methyl-indazol-5-yl)-2-(4-piperidyl) benzotriazole]
0.1 to 1 µM	0.1 to 1 µM	CCN1CCC(n2cc3cc(-c4cc(F)c5nn(C)cc5c4)cc(F)c3n2)CC1 [Compound 104, 2-(1-ethyl-4-piperidyl)-7-fluoro-5-(7-fluoro-2-methyl-indazol-5-yl)indazole]
0.1 to 1 µM	0.1 to 1 µM	Cn1cc2cc(-c3ccc4nn(C5CCNCC5)cc4c3)cc(F)c2n1 [Compound 105, 7-fluoro-2-methyl-5-[2-(4-piperidyl)indazol-5-yl]indazole]
< 0.1 µM	< 0.1 µM	Cc1c(O)c(-c2ccc3nn(C4CCNCC4)cc3n2)cc2cn(C)nc12 [Compound 109, 2,7-dimethyl-5-[2-(4-piperidyl)pyrazolo[4,3-b]pyridin-5-yl]indazol-6-ol]
< 0.1 µM	< 0.1 µM	Cc1cn2nc(-c3cc(F)c4nn(C5CCNCC5)cc4c3)cc2c(C)n1 [Compound 124, 2-[7-fluoro-2-(4-piperidyl)indazol-5-yl]-4,6-dimethyl-pyrazolo[1,5-a]pyrazine]
< 0.1 µM	< 0.1 µM	Cc1cn2cc(-c3cc(F)c4nn(C5CCNCC5)cc4c3)cc(C)c2n1 [Compound 125, 5-(2,8-dimethylimidazo[1,2-a]pyridin-6-yl)-7-fluoro-2-(4-piperidyl)indazole]
< 0.1 µM	< 0.1 µM	Cc1cn2cc(-c3cc(F)c4nn(C5CCNCC5)cc4c3)cc(Cl)c2n1 [Compound 127, 5-(8-chloro-2-methylimidazo[1,2-a]pyridin-6-yl)-7-fluoro-2-(piperidin-4-yl)-2H-indazole hydrochloride salt]
< 0.1 µM	< 0.1 µM	Cc1cn2cc(-c3cc(F)c4nn(C5CCNCC5)cc4c3)cc(F)c2n1 [Compound 129, 7-fluoro-5-(8-fluoro-2-methylimidazo[1,2-a]pyridin-6-yl)-2-(piperidin-4-yl)-2H-indazole]
< 0.1 µM	< 0.1 µM	Cn1cc2cc(-c3cc(F)c4nn(C5CCNCC5)cc4c3)cc(C#N)c2n1 [Compound 130, 5-[7-fluoro-2-(4-piperidyl)indazol-5-yl]-2-methyl-indazole-7-carbonitrile]
< 0.1 µM	< 0.1 µM	Cc1cc(-c2cc(F)c3nn(C4CCNCC4)cc3c2)cc2cn(C)nc12 [Compound 133, 5-(2,7-dimethylindazol-5-yl)-7-fluoro-2-(4-piperidyl)indazole]
< 0.1 µM	< 0.1 µM	Cc1nc2c(F)cc(-c3cc(F)c4nn(C5CCNCC5)cc4c3)cc2o1 [Compound 136, 4-fluoro-6-[7-fluoro-2-(4-piperidyl)indazol-5-yl]-2-methyl-1,3-benzoxazole]
–	< 0.1 µM	Cc1cn2nc(-c3cc(F)c4nn(CC5CCNCC5)cc4c3)cc(C)c2n1 [Compound 212, 6-[7-fluoro-2-(4-piperidylmethyl)indazol-5-yl]-2,8-dimethyl-imidazo[1,2-b]pyridazine]
